Experiments:
[1] = test system: barnyard grass; assay: Spray-chamber efficacy of S-3100 with or without fertilizer on potted barnyard grass; format: in vivo, Echinochloa crus-galli; conditions: barnyard grass 10 inches, S-3100 20 grams/ha, Fertilizer 14 liters/ha, 1% v/v Agridex (combination also 1% v/v Intact)
Description: 4 trials were conducted on the efficacy of ethyl [3-[2-chloro-4-fluoro-5-(1-methyl-6-trifluoromethyl-2,4-dioxo-1,2,3,4-tetrahydropyrimidin-3-yl)phenoxy]-2-pyridyloxy]acetate (“S-3100”) with or without a mannitol and/or sorbitol comprising fertilizer. Specifically, 4 pots of barnyard grass were grown to 10 inches in height. These pots were placed in a spray chamber for treatment. All compositions contained 1% v/v of Agridex®. The composition containing S-3100 and fertilizer contained 1% v/v of Intact™. Treatments and results can be found in Table 1, below.

[2] = test system: broadleaf grass; assay: Spray-chamber efficacy of S-3100 with or without fertilizer on potted broadleaf grass; format: in vivo; conditions: broadleaf grass 10 inches, S-3100 20 grams/ha, Fertilizer 14 liters/ha, 1% v/v Agridex (combination also 1% v/v Intact)
Description: 4 trials were conducted on the efficacy of ethyl [3-[2-chloro-4-fluoro-5-(1-methyl-6-trifluoromethyl-2,4-dioxo-1,2,3,4-tetrahydropyrimidin-3-yl)phenoxy]-2-pyridyloxy]acetate (“S-3100”) with or without a mannitol and/or sorbitol comprising fertilizer. Specifically, 4 pots of broadleaf grass were grown to 10 inches in height. These pots were placed in a spray chamber for treatment. All compositions contained 1% v/v of Agridex®. The composition containing S-3100 and fertilizer contained 1% v/v of Intact™. Treatments and results can be found in Table 2, below.

[3] = test system: giant foxtail; assay: Spray-chamber efficacy of S-3100 with or without fertilizer on potted giant foxtail; format: in vivo, Setaria faberi; conditions: giant foxtail 10 inches, S-3100 20 grams/ha, Fertilizer 14 liters/ha, 1% v/v Agridex (combination also 1% v/v Intact)
Description: 4 trials were conducted on the efficacy of ethyl [3-[2-chloro-4-fluoro-5-(1-methyl-6-trifluoromethyl-2,4-dioxo-1,2,3,4-tetrahydropyrimidin-3-yl)phenoxy]-2-pyridyloxy]acetate (“S-3100”) with or without a mannitol and/or sorbitol comprising fertilizer. Specifically, 4 pots of giant foxtail were grown to 10 inches in height. These pots were placed in a spray chamber for treatment. All compositions contained 1% v/v of Agridex®. The composition containing S-3100 and fertilizer contained 1% v/v of Intact™. Treatments and results can be found in Table 3, below.

[4] = test system: volunteer corn; assay: Spray-chamber efficacy of S-3100 with or without fertilizer on potted volunteer corn; format: in vivo, Zea mays; conditions: volunteer corn 15 inches, S-3100 20 grams/ha, Fertilizer 14 liters/ha, 1% v/v Agridex (combination also 1% v/v Intact)
Description: 4 trials were conducted on the efficacy of ethyl [3-[2-chloro-4-fluoro-5-(1-methyl-6-trifluoromethyl-2,4-dioxo-1,2,3,4-tetrahydropyrimidin-3-yl)phenoxy]-2-pyridyloxy]acetate (“S-3100”) with or without a mannitol and/or sorbitol comprising fertilizer. Specifically, 4 pots of volunteer corn were grown to 15 inches in height. These pots were placed in a spray chamber for treatment. All compositions contained 1% v/v of Agridex®. The composition containing S-3100 and fertilizer contained 1% v/v of Intact™. Treatments and results can be found in Table 4, below.

CCOC(=O)COc1ncccc1Oc1cc(-n2c(=O)cc(C(F)(F)F)n(C)c2=O)c(F)cc1Cl [S-3100, ethyl [3-[2-chloro-4-fluoro-5-(1-methyl-6-trifluoromethyl-2,4-dioxo-1,2,3,4-tetrahydropyrimidin-3-yl)phenoxy]-2-pyridyloxy]acetate]
% control, 3 Days After Treatment ([1]; 3 DAT): 73.3%
% control, 7 Days After Treatment ([1]; 7 DAT): 85.2%
% control, 13 Days After Treatment ([1]; 13 DAT): 84.7%
% control, 3 Days After Treatment ([2]; 3 DAT): 75.0%
% control, 7 Days After Treatment ([2]; 7 DAT): 93.0%
% control, 14 Days After Treatment ([2]; 14 DAT): 84.2%
% control, 3 Days After Treatment ([3]; 3 DAT): 76.7%
% control, 7 Days After Treatment ([3]; 7 DAT): 95.5%
% control, 14 Days After Treatment ([3]; 14 DAT): 96.1%
% control, 3 Days After Treatment ([4]; 3 DAT): 65.0%
% control, 7 Days After Treatment ([4]; 7 DAT): 59.2%
% control, 14 Days After Treatment ([4]; 14 DAT): 56.7%

Reference: patent publication US20210186020A1, “AGRICULTURAL COMPOSITIONS AND METHODS OF USE THEREOF” (Valent U.S.A. LLC, priority 2019, published 2021)
